Laboratory results reported in patent US11485744B2, “High penetration prodrug compositions of antimicrobials and antimicrobial-related compounds” (priority 2009, dated 2022).
Structures can show the parent of a compound that is named as a salt.

Assay: Conversion of HPPs to parent drugs in human plasma (half life)
Assay type: in vitro ADME
Settings: human, plasma
Experimental: HPPs of antimicrobials or antimicrobial-related compounds converted to the parent antimicrobials or antimicrobial-related compounds quickly in good yield in human plasma.
A HPP of antimicrobial or antimicrobial-related compound (10 mg) was dissolved in 0.1 ml of 0.2M pH 7.4 phosphate buffer. 1 ml of human plasma, preheated to 37° C., was added into the mixture. The mixture was kept in a water bath at 37° C., and at every 2 min intervals 0.2 ml of samples were withdrawn and added to 0.4 ml of methanol to precipitate the plasma protein.

Row | Structure (SMILES) | Half life of HPPs in plasma
1 | C=CCSCC(=O)NC1C(=O)N2C1SC(C)(C)C2C(=O)OCCN(CC)CC.Cl (centres unmarked) [allylmercaptomethylpenicillinic acid 2-diethylaminoethyl ester hydrochloride] | 8 ± 1 min
2 | CCN(CC)CCOC(=O)C1N2C(=O)[C@@H](NC(=O)C(NC(=O)N3CCN(S(C)(=O)=O)C3=O)c3ccccc3)C2SC1(C)C.Cl (stereo partly drawn) [6R-[2-[3-(methylsulfonyl)-2-oxo-1-imidazolidinecarboxamido]-2-phenylacetamido]penicillinic acid 2-diethylaminoethyl ester hydrochloride] | 13 ± 1 min
3 | CCN(CC)CCOC(=O)C1N2C(=O)C(NC(=O)c3c(-c4c(Cl)cccc4Cl)noc3C)C2SC1(C)C.Cl (centres unmarked) [6-[3-(2,6-dichlorophenyl)-5-methyl-4-isoxazolecarboxamido]penicillinic acid 2-diethylaminoethyl ester hydrochloride] | 12 ± 1 min

Assay: In vitro penetration across isolated human skin in modified Franz cells
Settings: Table 1b; isolated human skin, Franz cells, 10% in 0.2 M phosphate buffer pH 7.4, n=5
Experimental: Penetration rates of HPPs and their parent drugs through human skin were measured in vitro by modified Franz cells. A Franz cell had two chambers, the top sample chamber and the bottom receiving chamber. The human skin tissue (360-400 μm thick) that separated the top and the receiving chambers was isolated from the anterior or posterior thigh areas.
A test compound (2 mL, 10% in 0.2 M phosphate buffer, pH 7.4) was added to the sample chamber of a Franz cell. The receiving chamber contained 10 ml of 0.2 M phosphate buffer which was stirred at 600 rpm. The amount of the tested compound penetrating the skin was determined by high-performance liquid chromatography (HPLC) method.

Row | Structure (SMILES) | In vitro Penetration Rate (apparent flux), Parent compounds (beta-lactamases inhibitors) | In vitro Penetration Rate (apparent flux), HPPs of beta-lactamases inhibitors
4 | O=C(NCP(=O)([O-])Oc1cccnc1)OCc1ccccc1.[Na+] [[(N-benzyloxycarbonylamino)methyl]-phosphonic acid mono-(3-pyridinyl) ester sodium salt, reference compound] | <0.001 mg/cm^2/h | 
5 | Cl.O=C(NCP(=O)(OCCN1CCCCC1)Oc1cccnc1)OCc1ccccc1 (centres unmarked) [[(N-benzyloxycarbonylamino)methyl]-phosphonic acid (3-pyridinyl)(1-piperidineethyl) ester•HCl salt] |  | 0.25 ± 0.04 mg/cm^2/h
6 | CCN(CC)COP(=O)(CNC(=O)OCc1ccccc1)Oc1ccc([N+](=O)[O-])cc1.Cl (centres unmarked) [[(N-benzyloxycarbonylamino)methyl]-phosphonic acid (4-nitrophenyl)(N,N-diethylaminomethyl) ester•HCl salt] |  | 0.37 ± 0.03 mg/cm^2/h
7 | O=C(NCP(=O)([O-])Oc1ccc([N+](=O)[O-])cc1)OCc1ccccc1.[Na+] [[(N-benzyloxycarbonylamino)methyl]-phosphonic acid mono-(4-nitrophenyl) ester sodium salt, reference compound] | <0.001 mg/cm^2/h | 

Same assay, conditions: human, 10 %, pH 7.4

Row | In vitro Penetration Rate (apparent flux), Parent compounds | Structure (SMILES) | In vitro Penetration Rate (apparent flux), Parent compounds (beta-lactamases inhibitors)
8 | <0.001 mg/cm^2/h | NCc1ccccc1CC(=O)N[C@@H]1C(=O)N2C(C(=O)O)=C(CSc3nnnn3CC(=O)O)CS[C@H]12 [Ceforanide, reference compound] | 
9 | <0.001 mg/cm^2/h | CC1(C)S[C@@H]2[C@H](NC(=O)[C@H](NC(=O)N3CCNC3=O)c3ccccc3)C(=O)N2[C@H]1C(=O)O [Azlocillin, reference compound] | 
10 | <0.010 mg/cm^2/h | C=CC1=C(C(=O)O)N2C(=O)[C@@H](NC(=O)/C(=N\OCC(=O)O)c3csc(N)n3)[C@H]2SC1 [Cefixime, reference compound] | 
11 |  | O=C(O)[C@H]1/C(=C/CO)O[C@@H]2CC(=O)N21 [clavulanic acid, (2R,5R,Z)-3-(2-hydroxyethylidene)-7-oxo-4-oxa-1-aza-bicyclo[3.2.0]heptane-2-carboxylic acid, reference compound] | <0.001 mg/cm^2/h
12 | <0.001 mg/cm^2/h | Cc1onc(-c2c(Cl)cccc2Cl)c1C(=O)N[C@@H]1C(=O)N2[C@@H]1SC(C)(C)[C@@H]2C(=O)O [Dicloxacillin, reference compound] | 
13 | <0.001 mg/cm^2/h | CO/N=C(\C(=O)N[C@@H]1C(=O)N2C(C(=O)O)=C(COC(N)=O)CS[C@H]12)c1ccco1 [Cefuroxime, reference compound] | 
14 |  | C[C@]1(Cn2ccnn2)[C@H](C(=O)O)N2C(=O)C[C@H]2S1(=O)=O [tazobactam, [2S-(2alpha,3beta,5alpha)]-3-Methyl-7-oxo-3-(1H-1,2,3-triazol-1-ylmethyl)-4-thia-1-azabicyclo[3.2.0]heptane-2-carboxylic acid 4,4-dioxide sodium salt, reference compound] | <0.001 mg/cm^2/h
15 | <0.001 mg/cm^2/h | CC(=O)OCC1=C(C(=O)O)N2C(=O)[C@@H](NC(=O)Cc3cccs3)[C@H]2SC1 [Cephalothin, reference compound] | 
16 | <0.001 mg/cm^2/h | CO[C@@]1(NC(=O)Cc2cccs2)C(=O)N2C(C(=O)O)=C(COC(N)=O)CS[C@@H]21 [cefoxitin, reference compound] | 
17 | <0.001 mg/cm^2/h | COCC1=C(C(=O)OC(C)OC(=O)OC(C)C)N2C(=O)[C@@H](NC(=O)/C(=N\OC)c3csc(N)n3)[C@H]2SC1 (some centres unmarked) [Cefpodoxime proxetil, reference compound] | 
18 | <0.015 mg/cm^2/h | CCN1CCN(C(=O)N[C@@H](C(=O)N[C@@H]2C(=O)N3C(C(=O)O)=C(CSc4nnnn4C)CS[C@H]23)c2ccc(O)cc2)C(=O)C1=O [Cefoperazone, reference compound] | 
19 | <0.016 mg/cm^2/h | N[C@@H](C(=O)N[C@@H]1C(=O)N2C(C(=O)O)=C(Cl)CS[C@H]12)c1ccccc1 [Cefaclor, reference compound] | 
20 | <0.001 mg/cm^2/h | CC1(C)S[C@@H]2[C@H](NC(=O)[C@H](NC(=O)N3CCN(S(C)(=O)=O)C3=O)c3ccccc3)C(=O)N2[C@H]1C(=O)O [Mezlocillin, reference compound] | 

Same assay, conditions: pH 7.4

Row | In vitro Penetration Rate (apparent flux), Parent compounds | Structure (SMILES) | In vitro Penetration Rate (apparent flux), HPPs | In vitro Penetration Rate (apparent flux), HPPs of sulfonamides, sulfones, quinolones | In vitro Penetration Rate (apparent flux), HPPs of beta-lactamases inhibitors
21 | <0.001 mg/cm^2/h | C=CCSCC(=O)N[C@@H]1C(=O)N2[C@@H]1SC(C)(C)[C@@H]2C(=O)O [penicillin O, reference compound] |  |  | 
22 |  | CC1(C)SC2C(NC(=O)C(NC(=O)N3CCN(S(C)(=O)=O)C3=O)c3ccccc3)C(=O)N2C1C(=O)OCCN1CCCC1.Cl (stereo not drawn) [6R-[2-[3-(methylsulfonyl)-2-oxo-1-imidazolidinecarboxamido]-2-phenylacetamido]penicillinic acid 1-pyrrolidineethyl ester hydrochloride] | 0.79 ± 0.07 mg/cm^2/h |  | 
23 |  | C=CCSCC(=O)NC1C(=O)N2C1SC(C)(C)C2C(=O)OCCN(C)C.Cl (centres unmarked) [Allylmercaptomethylpenicillinic acid 2-dimethylaminoethyl ester hydrochloride] | 0.65 ± 0.05 mg/cm^2/h |  | 
24 |  | CCCN(CCC)CCOC(=O)C1N2C(=O)C(NC(=O)c3c(OC)cccc3OC)C2SC1(C)C.Cl (centres unmarked) [6-(2,6-dimethoxybenzamido)penicillinic acid 2-dipropylaminoethyl ester hydrochloride] | 0.52 ± 0.07 mg/cm^2/h |  | 
25 |  | CCN(CC)CCCOC(=O)C1=CC(=NNc2ccc(S(=O)(=O)Nc3ccccn3)cc2)C=CC1=O.Cl [sulfasalazine-DEPE, 6-oxo-3-(2-[4-(N-pyridin-2-ylsulfamoyl)phenyl]hydrazono)cyclohexa-1,4-dienecarboxylic acid N,N-diethyaminopropyl ester•HCl salt] |  | 0.21 ± 0.03 mg/cm^2/h | 
26 |  | C[C@]1(Cn2ccnn2)[C@H](C(=O)OCCN2CCCCC2)N2C(=O)C[C@H]2S1(=O)=O.Cl [tazobactam-PEE, [2S-(2alpha,3beta,5alpha)]-3-Methyl-7-oxo-3-(1H-1,2,3-triazol-1-ylmethyl)-4-thia-1-azabicyclo[3.2.0]heptane-2-carboxylic acid 4,4-dioxide 1-piperidineethyl ester•HCl salt] |  |  | 0.32 ± 0.03 mg/cm^2/h
27 |  | Cc1onc(-c2ccccc2Cl)c1C(=O)NC1C(=O)N2C1SC(C)(C)C2C(=O)OCCC1CCCNC1.Cl (centres unmarked) [6-[3-(o-chlorophenyl)-5-methyl-4-isoxazolecarboxamido]penicillinic acid 3-piperidineethyl ester hydrochloride] | 0.85 ± 0.05 mg/cm^2/h |  | 
28 |  | Cl.O=C(OCCC1CCNCC1)[C@H]1/C(=C/CO)O[C@@H]2CC(=O)N21 [clavulanic acid-PEE, (2R,5R,Z)-3-(2-hydroxyethylidene)-7-oxo-4-oxa-1-aza-bicyclo[3.2.0]heptane-2-carboxylic acid 4-piperidineethyl ester•HCl salt] |  |  | 0.29 ± 0.02 mg/cm^2/h
29 |  | CN(C)CCCC(=O)Nc1ccc(S(N)(=O)=O)cc1.Cl [DMAB-sulfanilamide, 4-(4-dimethylaminobutyryl)amidobenzenesulfonamide•HCl salt] |  | 0.18 ± 0.03 mg/cm^2/h | 
30 |  | CCOC(=O)C1N2C(=O)C(NC(=O)[C@H](N)c3ccccc3)C2SC1(C)C.Cl (stereo partly drawn) [6-[D(−)-α-aminophenylacetamidopenicillinic acid ethyl ester hydrochloride] | 0.82 ± 0.06 mg/cm^2/h |  | 
31 |  | Cc1onc(-c2c(Cl)cccc2Cl)c1C(=O)NC1C(=O)N2C1SC(C)(C)C2C(=O)OCCN1CCCCC1.Cl (centres unmarked) [6-[3-(2,6-dichlorophenyl)-5-methyl-4-isoxazolecarboxamido]penicillinic acid 1-piperidineethyl ester hydrochloride] | 0.58 ± 0.05 mg/cm^2/h |  | 
32 |  | CC1(C)SC2C(NC(=O)[C@H](NC(=O)N3CCNC3=O)c3ccccc3)C(=O)N2C1C(=O)OCC1CCCN1.Cl (stereo partly drawn) [D-α-[(imidazolidin-2-on-1-yl)carbonylamino]benzylpenicillin 2-pyrrolidinemethyl ester hydrochloride] | 0.72 ± 0.05 mg/cm^2/h |  | 
